{
  "source": "patent US8936728B2",
  "about": "“Chemicals for oil spill cleanup” (priority 2010, dated 2015)",
  "tested_on": "fresh water minnows",
  "experiment": "Toxicity tests using fresh water minnows",
  "assay_type": "in vivo",
  "conditions": "test water containing 25 ppm; control water without the phosphonium bromide",
  "experimental": "Toxicity tests were conducted using fresh water minnows. The fresh water minnows were placed in test water containing 25 ppm dodecylbenzyldimethyl phosphonium bromide and in a control water sample without the phosphonium bromide.",
  "data": [
    {"smiles": "CCCCCCCCCCCC[P+](C)(C)Cc1ccccc1.[Br-]", "note": "[dodecylbenzyldimethyl phosphonium bromide]", "values": [
      {"measurement": "number of fresh water minnows dying over a given time in the test water versus control", "result": "about the same as in the control"}
    ]}
  ]
}
